According to patent US6890736B1, “Methods for producing proteins in cultured cells” (Immunex Corporation, priority 2002, dated 2005):

Columns and labels:
Assay type in all cases: cell-based, Chinese hamster
[1] = tested on: cell line 25H9 (CHO cells); assay: Example 3: cell number (Guava PCA Cytometer); settings: 31° C., 10 μM
Procedure: (§1) About 2×10^6 cells of cell line 25H9 were inoculated into 30 milliliters of serum-free medium and incubated at the temperatures indicated in Table 1 in vented shake flasks. At the times indicated in Table 1, samples were taken from each flask to determine IL-1R-II titer, cell number, and cell viability. IL-1R-II protein titer was determined by ELISA assay. Cell number was determined by counting cells in a hemocytometer. Cell viability was determined by trypan blue staining and counting stained cells in a hemocytometer. Cumulative viable cell density (CVCD) is the area under the curve of a plot of the viable cell density versus time (in units of cells/ml/day). Productivity (pg of IL-1R-II/cell/day) was determined by dividing the protein titer on a particular day by the CVCD on the same day. Cells were fed with amino acids on days 2 and 5, and dextrose was added periodically in order to maintain levels above 2.0 g/L. All samples were done in duplicate, and the data shown is an average value.
The following experiment compares the effects of 5-bromo-2′-deoxycytidine 5′-monophosphate and 5-aza-2′-deoxycytidine on induction of protein production. The experiment was done as described in Example 1 with the following exceptions. All cultures were incubated at 31° C., and cell number and viability were determined using a Guava PCA Cytometer (available from Guava Technologies, Hayward, Calif., USA). Samples were done in triplicate.

[2] = tested on: cell line 25H9 (CHO cells); assay: Example 1: cell number (hemocytometer) and viability (trypan blue)
Procedure: (§2) The following experiment was designed to test whether decitabine can induce the production of a protein, in this case a recombinant soluble form of the human interleukin 1 receptor type II (IL-1-R-II), at either 31° C. or 34° C. Soluble versions of IL-1R-II and methods for producing it are described in U.S. Pat. No. 5,767,064. DNA encoding a soluble form of the human IL-1R-II was inserted into pG3.6, which is described in Morris et al. ((1998), Cytotechnology 28:9-17). This construct was used to transfect CHO cells to produce cell lines, including 25H9, that produce IL-1R-II protein.
as §1

[3] = as above; settings: Chinese hamster; for viability at 0 day, 1 μM / viability at 3 day, 1 μM / viability at 5 day, 1 μM / viability at 7 day, 1 μM / viability at 10 day, 1 μM: 1 μM decitabine; for viability at 0 day, 1 μM / viability at 0 day, 5 μM / viability at 0 day, 10 μM: day 0; for viability at 3 day, 1 μM / viability at 3 day, 5 μM / viability at 3 day, 10 μM: day 3; for viability at 5 day, 1 μM / viability at 5 day, 5 μM / viability at 5 day, 10 μM: day 5; for viability at 7 day, 1 μM / viability at 7 day, 5 μM / viability at 7 day, 10 μM: day 7; for viability at 0 day, 5 μM / viability at 3 day, 5 μM / viability at 5 day, 5 μM / viability at 7 day, 5 μM / viability at 10 day, 5 μM: 5 μM decitabine
Procedure: as §2, §1

[4] = 31° C., 1 μM decitabine, day 10
[5] = 31° C., 5 μM decitabine, day 10
[6] = 31° C., 10 μM decitabine, day 0
[7] = 31° C., 10 μM decitabine, day 3
[8] = 31° C., 10 μM decitabine, day 5
[9] = 31° C., 10 μM decitabine, day 7
[10] = 31° C., 10 μM decitabine, day 10
[11] = 34° C., 1 μM decitabine, day 10
[12] = 34° C., 5 μM decitabine, day 10
[13] = 34° C., 10 μM decitabine, day 0
[14] = 34° C., 10 μM decitabine, day 3
[15] = 34° C., 10 μM decitabine, day 5
[16] = 34° C., 10 μM decitabine, day 7

`Nc1ncn([C@H]2C[C@H](O)[C@@H](CO)O2)c(=O)n1` [decitabine, 5-aza-2′-deoxycytidine] showed a Viable Cell Density ([1]; day 0) of 2.4 cells/ml × 10^6, a Viable Cell Density ([1]; day 2) of 2.4 cells/ml × 10^6 and a Viable Cell Density ([1]; day 5) of 1.8 cells/ml × 10^6. For the same compound, the Viable Cell Density ([1]; day 7) was 1.1 cells/ml × 10^6, the Viable Cell Density ([1]; day 9) was 0.9 cells/ml × 10^6 and the “Cumulative Viable Cell Density” value ([2]; 31° C., 1 μM decitabine, day 0) was 0 mL⁻¹ day⁻¹. The “Viable Cell Density” value ([2]; 31° C., 1 μM decitabine, day 0) was 1.8e+06 mL⁻¹, the “Cumulative Viable Cell Density” value ([2]; 31° C., 1 μM decitabine, day 3) was 8.3e+06 mL⁻¹ day⁻¹ and the “Viable Cell Density” value ([2]; 31° C., 1 μM decitabine, day 3) was 3.7e+06 mL⁻¹. The “Cumulative Viable Cell Density” value ([2]; 31° C., 1 μM decitabine, day 5) was 1.7e+07 mL⁻¹ day⁻¹, the “Viable Cell Density” value ([2]; 31° C., 1 μM decitabine, day 5) was 5e+06 mL⁻¹ and the “Cumulative Viable Cell Density” value ([2]; 31° C., 1 μM decitabine, day 7) was 2.77e+07 mL⁻¹ day⁻¹. The “Viable Cell Density” value ([2]; 31° C., 1 μM decitabine, day 7) was 5.7e+06 mL⁻¹, the “Cumulative Viable Cell Density” value [2, 4] was 4.38e+07 mL⁻¹ day⁻¹ and the “Viable Cell Density” value [2, 4] was 5.1e+06 mL⁻¹. For the same compound, the “Cumulative Viable Cell Density” value ([2]; 31° C., 5 μM decitabine, day 0) was 0 mL⁻¹ day⁻¹, the “Viable Cell Density” value ([2]; 31° C., 5 μM decitabine, day 0) was 1.8e+06 mL⁻¹ and the “Cumulative Viable Cell Density” value ([2]; 31° C., 5 μM decitabine, day 3) was 8.5e+06 mL⁻¹ day⁻¹. For the same compound, the “Viable Cell Density” value ([2]; 31° C., 5 μM decitabine, day 3) was 3.8e+06 mL⁻¹, the “Cumulative Viable Cell Density” value ([2]; 31° C., 5 μM decitabine, day 5) was 1.57e+07 mL⁻¹ day⁻¹ and the “Viable Cell Density” value ([2]; 31° C., 5 μM decitabine, day 5) was 3.5e+06 mL⁻¹. The “Cumulative Viable Cell Density” value ([2]; 31° C., 5 μM decitabine, day 7) was 2.28e+07 mL⁻¹ day⁻¹, the “Viable Cell Density” value ([2]; 31° C., 5 μM decitabine, day 7) was 3.6e+06 mL⁻¹ and the “Cumulative Viable Cell Density” value [2, 5] was 4e+07 mL⁻¹ day⁻¹. The “Viable Cell Density” value [2, 5] was 7.8e+06 mL⁻¹, the “Cumulative Viable Cell Density” value [2, 6] was 0 mL⁻¹ day⁻¹ and the “Viable Cell Density” value [2, 6] was 1.8e+06 mL⁻¹. For the same compound, the “Cumulative Viable Cell Density” value [2, 7] was 7.4e+06 mL⁻¹ day⁻¹, the “Viable Cell Density” value [2, 7] was 3.1e+06 mL⁻¹ and the “Cumulative Viable Cell Density” value [2, 8] was 1.44e+07 mL⁻¹ day⁻¹. The “Viable Cell Density” value [2, 8] was 3.9e+06 mL⁻¹, the “Cumulative Viable Cell Density” value [2, 9] was 2.15e+07 mL⁻¹ day⁻¹ and the “Viable Cell Density” value [2, 9] was 3.3e+06 mL⁻¹. The “Cumulative Viable Cell Density” value [2, 10] was 3.18e+07 mL⁻¹ day⁻¹, the “Viable Cell Density” value [2, 10] was 3.6e+06 mL⁻¹ and the “Cumulative Viable Cell Density” value ([2]; 34° C., 1 μM decitabine, day 0) was 0 mL⁻¹ day⁻¹. For the same compound, the “Viable Cell Density” value ([2]; 34° C., 1 μM decitabine, day 0) was 1.8e+06 mL⁻¹, the “Cumulative Viable Cell Density” value ([2]; 34° C., 1 μM decitabine, day 3) was 1.14e+07 mL⁻¹ day⁻¹ and the “Viable Cell Density” value ([2]; 34° C., 1 μM decitabine, day 3) was 5.7e+06 mL⁻¹. The “Cumulative Viable Cell Density” value ([2]; 34° C., 1 μM decitabine, day 5) was 2.55e+07 mL⁻¹ day⁻¹, the “Viable Cell Density” value ([2]; 34° C., 1 μM decitabine, day 5) was 8.4e+06 mL⁻¹ and the “Cumulative Viable Cell Density” value ([2]; 34° C., 1 μM decitabine, day 7) was 4.15e+07 mL⁻¹ day⁻¹. The “Viable Cell Density” value ([2]; 34° C., 1 μM decitabine, day 7) was 7.6e+06 mL⁻¹, the “Cumulative Viable Cell Density” value [2, 11] was 5.69e+07 mL⁻¹ day⁻¹ and the “Viable Cell Density” value [2, 11] was 2.7e+06 mL⁻¹. The “Cumulative Viable Cell Density” value ([2]; 34° C., 5 μM decitabine, day 0) was 0 mL⁻¹ day⁻¹, the “Viable Cell Density” value ([2]; 34° C., 5 μM decitabine, day 0) was 1.8e+06 mL⁻¹ and the “Cumulative Viable Cell Density” value ([2]; 34° C., 5 μM decitabine, day 3) was 1.16e+07 mL⁻¹ day⁻¹. The “Viable Cell Density” value ([2]; 34° C., 5 μM decitabine, day 3) was 5.9e+06 mL⁻¹, the “Cumulative Viable Cell Density” value ([2]; 34° C., 5 μM decitabine, day 5) was 2.47e+07 mL⁻¹ day⁻¹ and the “Viable Cell Density” value ([2]; 34° C., 5 μM decitabine, day 5) was 7.2e+06 mL⁻¹. The “Cumulative Viable Cell Density” value ([2]; 34° C., 5 μM decitabine, day 7) was 3.81e+07 mL⁻¹ day⁻¹, the “Viable Cell Density” value ([2]; 34° C., 5 μM decitabine, day 7) was 6.3e+06 mL⁻¹ and the “Cumulative Viable Cell Density” value [2, 12] was 5.27e+07 mL⁻¹ day⁻¹. For the same compound, the “Viable Cell Density” value [2, 12] was 3.4e+06 mL⁻¹, the “Cumulative Viable Cell Density” value [2, 13] was 0 mL⁻¹ day⁻¹ and the “Viable Cell Density” value [2, 13] was 1.8e+06 mL⁻¹. For the same compound, the “Cumulative Viable Cell Density” value [2, 14] was 9.8e+06 mL⁻¹ day⁻¹, the “Viable Cell Density” value [2, 14] was 4.7e+06 mL⁻¹ and the “Cumulative Viable Cell Density” value [2, 15] was 1.93e+07 mL⁻¹ day⁻¹. For the same compound, the “Viable Cell Density” value [2, 15] was 4.8e+06 mL⁻¹, the “Cumulative Viable Cell Density” value [2, 16] was 2.73e+07 mL⁻¹ day⁻¹ and the “Viable Cell Density” value [2, 16] was 3.2e+06 mL⁻¹. It also gave a viability at 0 day, 1 μM ([3]; 31° C.) of 96.1%, a viability at 3 day, 1 μM ([3]; 31° C.) of 93.4% and a viability at 5 day, 1 μM ([3]; 31° C.) of 94.8%. The viability at 7 day, 1 μM ([3]; 31° C.) was 87.7%, the viability at 10 day, 1 μM ([3]; 31° C., day 10) was 63.9% and the viability at 0 day, 5 μM ([3]; 31° C.) was 96.1%. The viability at 3 day, 5 μM ([3]; 31° C.) was 93.6%, the viability at 5 day, 5 μM ([3]; 31° C.) was 84.6% and the viability at 7 day, 5 μM ([3]; 31° C.) was 77.7%. The viability at 10 day, 5 μM ([3]; 31° C., day 10) was 58.5%, the viability at 0 day, 10 μM ([3]; 31° C., 10 μM decitabine) was 96.1% and the viability at 3 day, 10 μM ([3]; 31° C., 10 μM decitabine) was 94.5%. For the same compound, the viability at 5 day, 10 μM ([3]; 31° C., 10 μM decitabine) was 80.8%, the viability at 7 day, 10 μM ([3]; 31° C., 10 μM decitabine) was 72.5% and the viability at 10 day, 10 μM [3, 10] was 50.6%. It also gave a viability at 0 day, 1 μM ([3]; 34° C.) of 96.1%, a viability at 3 day, 1 μM ([3]; 34° C.) of 93.6% and a viability at 5 day, 1 μM ([3]; 34° C.) of 91.5%. It also gave a viability at 7 day, 1 μM ([3]; 34° C.) of 55%, a viability at 10 day, 1 μM ([3]; 34° C., day 10) of 21.4% and a viability at 0 day, 5 μM ([3]; 34° C.) of 96.1%. The viability at 3 day, 5 μM ([3]; 34° C.) was 96.1%, the viability at 5 day, 5 μM ([3]; 34° C.) was 80.3% and the viability at 7 day, 5 μM ([3]; 34° C.) was 62.7%. The viability at 10 day, 5 μM ([3]; 34° C., day 10) was 33.3%, the viability at 0 day, 10 μM ([3]; 34° C., 10 μM decitabine) was 96.1% and the viability at 3 day, 10 μM ([3]; 34° C., 10 μM decitabine) was 93.6%. It also gave a viability at 5 day, 10 μM ([3]; 34° C., 10 μM decitabine) of 75.3% and a viability at 7 day, 10 μM ([3]; 34° C., 10 μM decitabine) of 43.9%.
